The record followed here is patent US8883827B2, “Azole derivatives as WTN pathway inhibitors” (Oslo University Hospital HF, priority 2009, dated 2014).

One assay addresses T1, c-RAF(h) (Homo sapiens, UniProt P04049).
T1 construct: purchased Millipore (KinaseProfiler service)
Briefly: Kinase screen. The settings on record: 0.1% DMSO control = 100%. In kind it is biochemical.

Another assay deals with T2, VHR(h) (Homo sapiens, UniProt P51452).
T2 construct: purchased Millipore (KinaseProfiler service)
T2 sequence (P51452 whole entry): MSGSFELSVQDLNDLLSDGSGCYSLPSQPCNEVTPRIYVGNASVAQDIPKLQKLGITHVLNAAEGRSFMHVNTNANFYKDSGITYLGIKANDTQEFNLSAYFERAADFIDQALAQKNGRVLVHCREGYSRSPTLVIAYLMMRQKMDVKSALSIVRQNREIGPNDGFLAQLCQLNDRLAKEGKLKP
Briefly: Phosphatase screen. In kind it is biochemical. To be noted: 0.1% DMSO control = 100%.

The target of the next assay is T3, Lyn(h) (Homo sapiens, UniProt P07948).
T3 construct: purchased Millipore (KinaseProfiler service)
T3 sequence (P07948 whole entry): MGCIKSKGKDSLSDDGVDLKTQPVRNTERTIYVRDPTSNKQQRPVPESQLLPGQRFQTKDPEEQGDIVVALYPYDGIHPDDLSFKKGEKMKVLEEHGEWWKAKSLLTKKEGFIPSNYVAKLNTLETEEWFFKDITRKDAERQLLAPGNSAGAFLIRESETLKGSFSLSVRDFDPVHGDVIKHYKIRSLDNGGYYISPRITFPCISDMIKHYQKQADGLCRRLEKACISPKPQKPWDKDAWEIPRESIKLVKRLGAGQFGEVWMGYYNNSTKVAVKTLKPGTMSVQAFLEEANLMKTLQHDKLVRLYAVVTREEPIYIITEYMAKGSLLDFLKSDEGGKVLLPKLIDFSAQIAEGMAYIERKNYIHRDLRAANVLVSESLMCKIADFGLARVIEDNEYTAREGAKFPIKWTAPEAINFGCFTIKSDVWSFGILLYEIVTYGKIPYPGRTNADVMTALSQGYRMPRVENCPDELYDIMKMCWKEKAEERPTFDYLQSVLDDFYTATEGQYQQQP
Briefly: Kinase screen. In kind it is biochemical. The settings on record: 0.1% DMSO control = 100%.

For a further assay, the target named is T4, TMDP(h) (Homo sapiens, UniProt Q9UII6).
T4 construct: purchased Millipore (KinaseProfiler service)
T4 sequence (Q9UII6 whole entry): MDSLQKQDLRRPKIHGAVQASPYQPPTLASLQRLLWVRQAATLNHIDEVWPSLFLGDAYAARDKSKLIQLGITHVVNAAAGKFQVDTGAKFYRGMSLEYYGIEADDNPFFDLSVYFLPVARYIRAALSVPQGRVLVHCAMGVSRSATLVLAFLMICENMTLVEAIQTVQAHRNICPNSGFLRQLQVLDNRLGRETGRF
Briefly: Phosphatase screen. The settings on record: 0.1% DMSO control = 100%. Type of assay: biochemical.

A further assay concerns the target T5, CDK6/cyclinD3(h) (Homo sapiens, UniProt Q00534).
T5 construct: purchased Millipore (KinaseProfiler service)
Briefly: Kinase screen. Type of assay: biochemical. To be noted: 0.1% DMSO control = 100%.

In another assay the test system is SW480 cells. Briefly: BrdU/PI cell cycle analysis. Type of assay: cell-based. The settings on record: 25 μM, 72 h. On the procedure: Cell cycle progression was measured by BrdU labeling of cultured cells that were counterstained with propidium iodide (PI).
SW480 cells were seeded and exposed to compounds for 3 days changing medium every day as described in Example 24. After a 30 minute incubation with 10 μM BrdU, the cells were trypsinized and stained with 1:100 diluted mouse anti-BrdU antibody (Roche) and Alexa Fluor®488 goat anti-mouse antibody (A 11001, Invitrogen). Counterstaining was done with 10 μg/mL PI in 200 μg/mL RNase I (both Sigma). Samples were analyzed on the PAS-PPCS flow cytometer and cell sorter (Partec).

For another assay, the target named is T6, CDK7/cyclinH/MAT1(h) (Homo sapiens, UniProt P50613).
T6 construct: purchased Millipore (KinaseProfiler service)
Briefly: Kinase screen. The settings on record: 0.1% DMSO control = 100%. Type of assay: biochemical.

In a further assay the target is T7, PTPN22(h) (Homo sapiens, UniProt Q9Y2R2).
T7 construct: purchased Millipore (KinaseProfiler service)
Briefly: Phosphatase screen. Type of assay: biochemical. The settings on record: 0.1% DMSO control = 100%.

For the next assay, the target named is T8, ALK(h) (Homo sapiens, UniProt Q9UM73).
T8 construct: purchased Millipore (KinaseProfiler service)
Briefly: Kinase screen. In kind it is biochemical. To be noted: 0.1% DMSO control = 100%.

Another assay deals with β-catenin. Briefly: Western blot and immunocytochemistry of β-catenin in SW480 cells. Type of assay: cell-based. On the procedure:
The effect of compound No. 1 on the presence of β-catenin in the nucleus or in the cytoplasm of colorectal cancer SW480 cells was investigated. SW480 cells contain activating mutations in the APC gene, leading to elevated levels of nuclear β-catenin and aberrant canonical Wnt signaling. A Western blot analysis was carried out using cell lysates from compound-treated SW480 cells and an antibody against the active form of β-catenin (non-phosphorylated N-terminal—ABC). In parallel, antibodies were used against total β-catenin (β-catenin), or β-catenin phosphorylated at the N-terminal (-β-catenin) which detects a degradable form of β-catenin.
SW480 cells were seeded and treated with compound No. 1 as described in Example 25. Cell lysates were immunoblotted using monoclonal active-β-catenin (ABC—Millipore), monoclonal β-catenin (β-catenin—BD Transduction Laboratories™), phospho-β-catenin (pβ-catenin—Cell Signaling Technology) and actin (Sigma). Primary antibodies were visualized with secondary HRP conjugated antibodies (Santa Cruz Biotechnology) and enhanced chemiluminescent substrate (Pierce® ECL Western Blotting Substrate, Thermo Scientific).
For immunocytochemical experiments, SW480 cells were seeded and treated as described in Example 24. After 72 hours, cells were fixed in 4% PFA in PBS for 10 minutes. Immunostaining was performed as described in standard protocols. Primary antibody (monoclonal β-catenin, BD Transduction Laboratories™) and secondary antibody (Alexa Fluor® 594, Invitrogen) were diluted 1:1000. The samples were imaged by using a Zeiss Axiovert 200M Fluorescence/Live cell Imaging Microscope with X40 magnification and the same exposure times. Cells were stained with DAPI (4′,6-diamidino-2-phenylindole) according to standard protocols.
For orientation: A western blot detects proteins with antibodies after separation by electrophoresis.

A further assay addresses T9, KDR(h) (Homo sapiens, UniProt P35968).
T9 construct: purchased Millipore (KinaseProfiler service)
Briefly: Kinase screen. In kind it is biochemical. To be noted: 0.1% DMSO control = 100%.

A further assay concerns the target T10, CDK1/cyclinB(h) (Homo sapiens, UniProt P06493).
T10 construct: purchased Millipore (KinaseProfiler service)
Briefly: Kinase screen. Type of assay: biochemical. The settings on record: 0.1% DMSO control = 100%.

For another assay, the target named is T11, IKKα(h) (Homo sapiens, UniProt O15111).
T11 construct: purchased Millipore (KinaseProfiler service)
T11 sequence (O15111 whole entry): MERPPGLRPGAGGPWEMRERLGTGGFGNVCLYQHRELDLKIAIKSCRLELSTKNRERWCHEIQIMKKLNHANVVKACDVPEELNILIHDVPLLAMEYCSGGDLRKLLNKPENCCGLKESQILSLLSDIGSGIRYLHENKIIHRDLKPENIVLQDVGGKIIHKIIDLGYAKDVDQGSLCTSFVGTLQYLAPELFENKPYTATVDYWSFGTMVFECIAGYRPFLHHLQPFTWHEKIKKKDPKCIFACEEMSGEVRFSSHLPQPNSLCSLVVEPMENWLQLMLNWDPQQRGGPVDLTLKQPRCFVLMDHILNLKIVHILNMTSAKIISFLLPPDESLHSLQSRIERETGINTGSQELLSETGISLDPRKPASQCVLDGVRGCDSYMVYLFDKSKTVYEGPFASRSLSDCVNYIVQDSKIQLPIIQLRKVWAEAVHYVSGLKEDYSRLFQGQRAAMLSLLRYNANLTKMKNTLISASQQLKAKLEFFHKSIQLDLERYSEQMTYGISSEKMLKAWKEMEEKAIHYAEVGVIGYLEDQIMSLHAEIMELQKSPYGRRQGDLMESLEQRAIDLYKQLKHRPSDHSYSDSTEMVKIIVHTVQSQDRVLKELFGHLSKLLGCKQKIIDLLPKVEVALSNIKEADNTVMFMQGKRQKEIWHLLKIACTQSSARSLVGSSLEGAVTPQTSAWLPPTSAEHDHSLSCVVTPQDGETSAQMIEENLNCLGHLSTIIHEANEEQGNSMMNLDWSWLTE
Briefly: Kinase screen. Type of assay: biochemical. The settings on record: 0.1% DMSO control = 100%.

In a further assay the target is T12, Fyn(h) (Homo sapiens, UniProt P06241).
T12 construct: purchased Millipore (KinaseProfiler service)
Briefly: Kinase screen. In kind it is biochemical. To be noted: 0.1% DMSO control = 100%.

In another assay the target is T13, RPTPm(h) (Homo sapiens, UniProt P28827).
T13 construct: purchased Millipore (KinaseProfiler service)
T13 sequence (P28827 21-1452): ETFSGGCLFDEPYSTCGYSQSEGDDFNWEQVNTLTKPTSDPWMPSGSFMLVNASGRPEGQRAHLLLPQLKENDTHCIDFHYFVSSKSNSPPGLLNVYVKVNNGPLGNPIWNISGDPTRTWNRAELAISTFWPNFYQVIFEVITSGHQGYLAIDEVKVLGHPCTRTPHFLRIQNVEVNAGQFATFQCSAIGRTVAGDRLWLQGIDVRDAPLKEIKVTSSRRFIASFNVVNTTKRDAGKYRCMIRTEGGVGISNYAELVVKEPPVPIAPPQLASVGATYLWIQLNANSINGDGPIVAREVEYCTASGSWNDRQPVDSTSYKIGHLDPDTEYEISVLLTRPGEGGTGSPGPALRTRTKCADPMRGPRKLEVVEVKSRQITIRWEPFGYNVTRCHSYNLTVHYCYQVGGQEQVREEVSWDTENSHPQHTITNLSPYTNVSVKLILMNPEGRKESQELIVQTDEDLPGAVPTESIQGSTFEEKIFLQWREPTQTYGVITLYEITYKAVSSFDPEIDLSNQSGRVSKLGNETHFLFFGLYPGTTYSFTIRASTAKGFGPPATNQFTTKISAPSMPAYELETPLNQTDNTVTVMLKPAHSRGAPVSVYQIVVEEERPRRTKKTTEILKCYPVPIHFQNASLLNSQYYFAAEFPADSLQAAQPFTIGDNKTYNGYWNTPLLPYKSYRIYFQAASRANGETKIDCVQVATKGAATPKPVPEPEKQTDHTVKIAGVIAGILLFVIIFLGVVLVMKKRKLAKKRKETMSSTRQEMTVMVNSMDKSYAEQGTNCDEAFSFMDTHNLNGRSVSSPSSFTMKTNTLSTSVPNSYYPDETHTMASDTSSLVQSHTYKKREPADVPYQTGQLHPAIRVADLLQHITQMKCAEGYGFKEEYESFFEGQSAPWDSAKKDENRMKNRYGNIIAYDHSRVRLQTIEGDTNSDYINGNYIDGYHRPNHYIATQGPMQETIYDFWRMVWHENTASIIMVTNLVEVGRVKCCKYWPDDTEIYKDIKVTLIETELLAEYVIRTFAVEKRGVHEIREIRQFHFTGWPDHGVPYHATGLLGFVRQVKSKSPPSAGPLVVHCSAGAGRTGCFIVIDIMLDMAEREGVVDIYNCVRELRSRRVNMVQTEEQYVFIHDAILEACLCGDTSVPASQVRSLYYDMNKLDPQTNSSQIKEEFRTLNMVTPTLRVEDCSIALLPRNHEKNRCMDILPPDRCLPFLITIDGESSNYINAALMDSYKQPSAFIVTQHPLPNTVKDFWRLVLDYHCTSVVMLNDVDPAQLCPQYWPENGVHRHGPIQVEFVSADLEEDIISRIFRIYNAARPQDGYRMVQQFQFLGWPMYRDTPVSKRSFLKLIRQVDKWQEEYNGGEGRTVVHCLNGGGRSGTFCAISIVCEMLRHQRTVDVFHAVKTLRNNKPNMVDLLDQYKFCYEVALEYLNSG
Briefly: Phosphatase screen. Type of assay: biochemical. The settings on record: 0.1% DMSO control = 100%.

The target in a further assay is T14, MLK1(h) (Homo sapiens, UniProt P80192).
T14 construct: purchased Millipore (KinaseProfiler service)
Briefly: Kinase screen. Type of assay: biochemical. To be noted: 0.1% DMSO control = 100%.

The next assay has as its target T15, CD45(h) (Homo sapiens, UniProt P08575).
T15 construct: purchased Millipore (KinaseProfiler service)
Briefly: Phosphatase screen. Type of assay: biochemical. The settings on record: 0.1% DMSO control = 100%.

A further assay addresses T16, PKCθ(h) (Homo sapiens, UniProt Q04759).
T16 construct: purchased Millipore (KinaseProfiler service)
Briefly: Kinase screen. Type of assay: biochemical. The settings on record: 0.1% DMSO control = 100%.

T15 sequence (P08575 26-1306): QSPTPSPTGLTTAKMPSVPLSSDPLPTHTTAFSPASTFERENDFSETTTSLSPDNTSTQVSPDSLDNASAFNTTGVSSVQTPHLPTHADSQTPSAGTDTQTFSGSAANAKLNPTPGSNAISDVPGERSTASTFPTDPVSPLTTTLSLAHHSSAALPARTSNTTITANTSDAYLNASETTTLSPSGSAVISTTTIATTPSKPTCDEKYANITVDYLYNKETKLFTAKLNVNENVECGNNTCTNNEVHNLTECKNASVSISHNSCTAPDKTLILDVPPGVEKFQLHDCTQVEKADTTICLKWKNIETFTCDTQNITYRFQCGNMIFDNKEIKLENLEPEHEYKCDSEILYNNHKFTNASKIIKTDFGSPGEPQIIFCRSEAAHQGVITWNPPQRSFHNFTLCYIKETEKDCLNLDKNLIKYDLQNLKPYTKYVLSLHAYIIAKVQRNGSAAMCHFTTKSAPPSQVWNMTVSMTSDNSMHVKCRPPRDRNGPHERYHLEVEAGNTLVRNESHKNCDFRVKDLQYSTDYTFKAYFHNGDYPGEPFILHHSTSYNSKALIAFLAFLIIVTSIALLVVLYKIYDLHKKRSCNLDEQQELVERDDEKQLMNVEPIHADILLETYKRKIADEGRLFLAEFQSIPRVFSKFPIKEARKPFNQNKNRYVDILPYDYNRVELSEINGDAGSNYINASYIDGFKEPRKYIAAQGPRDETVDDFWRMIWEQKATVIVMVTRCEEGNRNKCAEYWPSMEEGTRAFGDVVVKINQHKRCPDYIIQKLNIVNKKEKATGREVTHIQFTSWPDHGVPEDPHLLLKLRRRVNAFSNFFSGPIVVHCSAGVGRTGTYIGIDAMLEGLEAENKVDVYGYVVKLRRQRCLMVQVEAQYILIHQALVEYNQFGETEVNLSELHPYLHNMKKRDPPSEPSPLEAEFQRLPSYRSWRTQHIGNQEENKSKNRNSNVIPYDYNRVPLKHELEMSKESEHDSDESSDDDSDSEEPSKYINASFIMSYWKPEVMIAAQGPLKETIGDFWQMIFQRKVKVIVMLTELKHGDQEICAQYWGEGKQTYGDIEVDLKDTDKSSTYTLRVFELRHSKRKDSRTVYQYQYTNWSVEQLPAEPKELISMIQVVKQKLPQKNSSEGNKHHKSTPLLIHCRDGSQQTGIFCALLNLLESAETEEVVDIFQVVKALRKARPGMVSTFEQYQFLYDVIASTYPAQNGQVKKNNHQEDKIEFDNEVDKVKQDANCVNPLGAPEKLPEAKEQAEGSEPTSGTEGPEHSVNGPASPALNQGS
T1 sequence (P04049 whole entry): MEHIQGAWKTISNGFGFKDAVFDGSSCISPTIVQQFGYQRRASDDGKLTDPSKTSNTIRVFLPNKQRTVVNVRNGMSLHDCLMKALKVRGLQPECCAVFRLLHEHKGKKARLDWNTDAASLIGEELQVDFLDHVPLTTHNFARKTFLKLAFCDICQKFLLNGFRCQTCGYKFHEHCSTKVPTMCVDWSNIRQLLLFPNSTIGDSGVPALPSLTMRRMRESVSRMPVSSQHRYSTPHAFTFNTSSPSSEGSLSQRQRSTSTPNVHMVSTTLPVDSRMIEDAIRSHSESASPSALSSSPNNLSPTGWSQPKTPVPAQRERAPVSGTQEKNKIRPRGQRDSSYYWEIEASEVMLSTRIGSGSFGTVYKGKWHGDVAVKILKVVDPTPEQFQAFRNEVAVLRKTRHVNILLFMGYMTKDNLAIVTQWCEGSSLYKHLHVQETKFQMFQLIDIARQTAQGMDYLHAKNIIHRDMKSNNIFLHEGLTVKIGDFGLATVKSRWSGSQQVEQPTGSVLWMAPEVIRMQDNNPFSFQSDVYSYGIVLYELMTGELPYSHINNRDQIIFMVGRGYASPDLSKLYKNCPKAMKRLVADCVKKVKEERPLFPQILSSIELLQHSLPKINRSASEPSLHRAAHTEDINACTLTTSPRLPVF

On to `COc1ccc(-n2c(SCc3nc(-c4ccc(C)cc4)no3)nnc2-c2ccncc2)cc1` [Compound 1], for which the activity at 10 µM at c-RAF(h) came to 98%; on VHR(h) it was 103%; on Lyn(h) it was 109%; at TMDP(h), 97%; on CDK6/cyclinD3(h) it was 94%; on CDK7/cyclinH/MAT1(h), 108%. Moreover, the activity at 10 µM at PTPN22(h) was 99%; at ALK(h) it was 91%; on KDR(h) it was 104%; on CDK1/cyclinB(h), 101%; at IKKα(h), 109%; on Fyn(h) it was 83%. The activity at 10 µM at RPTPm(h) is 103%; at MLK1(h), 99%; on CD45(h) it was 108%; at PKCθ(h), 109%. For the same compound, the “percentage of cells in S phase” value in the assay on SW480 cells (DMSO control 28.4%) was 16.2%. Moreover, the “percentage of G1-phase cells” value in the assay with SW480 cells (DMSO control 37.3%) came to 46.4%. Moreover, the “active β-catenin (non-phosphorylated, ABC) in Western blot” value in the assay with β-catenin (SW480, 1 μM, 72 hours) is given as “barely detectable”. In addition, the “overall levels of total β-catenin (Western blot)” value in the assay on β-catenin (SW480, 72-hour exposure) is “reduced”. The “nuclear total β-catenin (immunofluorescence)” value in the assay on β-catenin (SW480, 72-hour incubation) is given as “Reduction”. Also, in the assay with β-catenin (SW480, 24 hours after adding compound), the “level of degradable pβ-catenin (Western blot)” value is “temporarily increased”. Besides, the “active β-catenin (ABC) level (Western blot)” value in the assay with β-catenin (SW480, 72 h, all concentrations) was “even stronger reduction”.
